Results reported in US20240317716A1, “METHOD FOR PREPARING XANTHINE OXIDASE INHIBITOR” (LG CHEM, LTD., priority 2021, published 2024).
In brackets after ≈: the same amount, converted by molar mass.

Assay: Solubility of 1-(3-cyano-1-isopropyl-indol-5-yl)pyrazole-4-carboxylic acid in organic solvents
Format: physicochemical
Details: organic solvent or mixture

solubility (in ACN): ≤ 100 µg/mL
solubility (in EtOAc): ≤ 100 µg/mL
solubility (in MeOH): ≤ 100 µg/mL
solubility (in acetone): 100 to 1000 µg/mL (≈ 340 to 3400 µM)
Compound: CC(C)n1cc(C#N)c2cc(-n3cc(C(=O)O)cn3)ccc21 [1-(3-Cyano-1-isopropyl-indol-5-yl)pyrazole-4-carboxylic acid]
